Reference: US8207314B2, “Tumor antigens for prevention and/or treatment of cancer” (Sanofi Pasteur Limited, priority 2003, dated 2012)

Experiments:
[1] = system: Human PBMC from an HLA-A2.1 positive donor; assay: IFN-γ ELISPOT of human T cells activated with BFY3 peptide pools and deconvolution to single peptides; format: cell-based; conditions: BFY3 nonamer peptides; listing = result
Source text: Human PBMC from an HLA-A2.1 positive donor designated AP31 were activated with autologous dendritic cells pulsed with different pools of 9-mer peptides from the BFY3 antigen (see Table I for list). The activated T cells were re-stimulated after 12 days with activated autologous CD40-ligand-activated B cells pulsed with the same respective peptide pools for another 8 to 10 days. This secondary activation was repeated 2 more time for a total of 4 stimulations. The activated T cells were isolated after the 4th stimulation and subjected to ELISPOT analysis for human IFN-γ production against their respective BFY3 peptide pools as shown. The blue bars show reactivity against the BFY3 peptide pools and the red bars are for an HLA-A2.1-binding HIV peptide as a negative control. Standard deviations are indicated. The experiment was repeated 2 times on activated T cells from different rounds of peptide stimulation with the similar results (FIG. 17A).
The BFY3 peptide pools were deconvoluted and studied in IFN-γ ELISPOT assays. Stimulation was performed as described earlier for the other antigens described. After 4 rounds of stimulation, the T cells from each culture were harvested and subjected to ELISPOT analysis for IFN-γ production with each individual peptide in each pool. FIG. 17B illustrates individual peptide reactivity for each specific pool.

[2] = system: targets pulsed with corresponding peptide pools; assay: CTL killing of targets pulsed with BFY3 peptide pools or peptides; format: cell-based, human; conditions: for Peptides eliciting CTL activity (peptide pulsed targets): BFY3 nonamer peptides, listing = result; for recognition of single peptides by CTL: BFY3 peptides, peptide-pulsed targets
Procedure: (§1) In addition to ELISPOT analysis, human T cells activated by BFY3 peptides were assayed for reactivity. Ten pools of peptides consisting often peptides per pool used to generate CTL. These 10 groups of effectors used to kill targets pulsed with corresponding peptide pools. […]

[3] = system: CosA2 cells transfected with BFY3; assay: CTL killing of BFY3-transfected cells; format: cell-based; conditions: CTL generated from BFY3 peptide pools
Procedure: as §1

[4] = system: peptide-loaded human T2 lymphoma cell targets; assay: CTL killing of BFA4 peptide-pulsed target cells; format: cell-based; conditions: single BFA4 peptides, listing = result
peptide-loaded T2 cells = assay: 51Cr-release CTL assay with BFA5 peptide-activated human T cells; format: cell-based; conditions: for CTL activity in T cells from both donors: donors AP10 and AP31
Procedure: In addition to ELISPOT analysis, human T cells activated by BFA5 peptides were assayed to determine their ability to function as CTL. The cells were activated using peptide-pulsed dendritic cells followed by CD40 ligand-activated B cells (5 rounds of stimulation). The experiment shown was performed with isolated PBMC from HLA-A*0201^+ donor AP31. Isolated T cells were tested in ^51Cr-release assays using peptide-loaded T2 cells. The % specific lysis at a 10:1, 5:1, and 1:1 T-cell to target ratio is shown for T2 cells pulsed with either pools of BFA5/NYBR-1 peptides or with individual peptides. […] CTL activity (percent specific lysis) induced by the control HIV peptide was generally <10%. Similar results were obtained with another PBMC donor expressing HLA-A*0201 (AP10). […]

HLA-A*0201 human T cells = assay: IFN-γ ELISPOT of human T cells activated with BFA5/NYBR-1 peptide pools and single peptides; format: cell-based; conditions: for BFA5 peptides eliciting high IFN-γ release (>200 spots/100,000 cells): listing = result; for IFN-γ secretion in T cells from both donors: donors AP10 and AP31
Procedure: A library of 100 peptides from the BFA5/NYBR-1 coding sequence that are predicted to be medium to high binders to HLA-A*0201 were designed using Rammensee and Parker algorithms. The library was sub-divided into 10 pools of ten peptides (see Table XI), and each pool was used to activate 10 different T cell cultures after pulsing peptides on to mature autologous dendritic cells.
ELISPOT analysis was performed on human T-cell cultures activated through four rounds of stimulation with each pool of BFA5 peptides. In FIG. 13A, the numbers under the X-axis indicate the number of each peptide pool (1-10). Reactivity against a CMV pp65 peptide, and a Flu matrix peptide were used as positive controls for T-cell activation in the experiments. Each experiment was performed with PBMC and dendritic cells from a single HLA-A*0201^+ donor designated as “AP10”. […] Similar results were obtained for both BFA4 and BFA5/NYBR-1 with a different HLA-A*0201. […] Cultures having a reading of 600 spots have more than this number of spots.
A large number of the BFA5 peptide pools of are reactive as shown by the high levels of IFN-γ production (FIG. 13A). Each reactive peptide pool was then separated into individual peptides and analyzed for immunogenicity using ELISPOT analysis to isolate single reactive BFA5 peptides. […] Similar results were obtained in two independent PBMC culture experiments.

BFA4 = assay: Rabbit antibody titers after immunization with BFA4 22-mer peptides; format: in vivo
Source text: For monitoring purposes, rabbit anti-BFA4 polyclonal antibodies were generated. Six peptides (22-mers) were designed and synthesized to elicit antibody response to BFA4, as shown below:
Rabbits were immunized with the peptides, serum was isolated, and the following antibody titers were observed: […]

[5] = first-listed rabbit of the pair
[6] = second-listed rabbit of the pair

Sequence: KAANVTLLT [CLP 3378]
- Peptides eliciting strong IFN-γ ELISPOT activity [1]: KAANVTLLT
- Peptides eliciting CTL activity (peptide pulsed targets) [2]: KAANVTLLT
- recognition of single peptides by CTL [2]: strongly recognized

Sequence: SCLTHFNLI [CLP 3403]
- Peptides eliciting strong IFN-γ ELISPOT activity [1]: SCLTHFNLI

Sequence: HAIEEVPHV [CLP 3344]
- Peptides eliciting strong IFN-γ ELISPOT activity [1]: HAIEEVPHV
- killing of CosA2 cells transfected with BFY3 by CTL [3]: responsible for this cytotoxicity
- Peptides eliciting CTL activity (peptide pulsed targets) [2]: HAIEEVPHV
- recognition of single peptides by CTL [2]: strongly recognized

Sequence: FTTPDVDVL [CLP 2468]
- Strong CTL Killing (listed as highly immunoreactive peptide) [4]: FTTPDVDVL

Sequence: YVPYPTFNL [CLP 2509]
- Strong CTL Killing (listed as highly immunoreactive peptide) [4]: YVPYPTFNL

Sequence: KLDKIGLNL [CLP 3372]
- Peptides eliciting strong IFN-γ ELISPOT activity [1]: KLDKIGLNL
- Peptides eliciting CTL activity (peptide pulsed targets) [2]: KLDKIGLNL
- recognition of single peptides by CTL [2]: strongly recognized

Sequence: YLLHENQML [CLP 2997]
- BFA5 peptides inducing CTL lysis of pulsed cells (peptide-loaded T2 cells; Donor AP10, listing = result): YLLHENCML
- BFA5 peptides eliciting high IFN-γ release (>200 spots/100,000 cells) (HLA-A*0201 human T cells; Donor AP10): YLLHENCML
- BFA5 peptides eliciting high IFN-γ release (>200 spots/100,000 cells) (HLA-A*0201 human T cells; Donor AP31): YLLHENCML

Sequence: HLARDFGYV [CLP 3387]
- Peptides eliciting strong IFN-γ ELISPOT activity [1]: HLARDFGYV
- Peptides eliciting CTL activity (peptide pulsed targets) [2]: HLARDFGYV
- recognition of single peptides by CTL [2]: strongly recognized

Sequence: RNMLAFSFP [CLP 2425]
- Strong CTL Killing (listed as highly immunoreactive peptide) [4]: RNMLAFSFP

Sequence: KYKVTVAEV [CLP 3362]
- Peptides eliciting strong IFN-γ ELISPOT activity [1]: KYKVTVAEV
- Peptides eliciting CTL activity (peptide pulsed targets) [2]: KYKVTVAEV
- recognition of single peptides by CTL [2]: Moderately recognized

Sequence: NHLQGSDGQQSVKESKEHSCTK [CLP2592]
- Titer (Bleed 2) (BFA4; [5]): 25600
- Titer (Final Bleed) (BFA4; [5]): 80000
- Titer (Bleed 2) (BFA4; [6]): 12800
- Titer (Final Bleed) (BFA4; [6]): 40000

Sequence: YLTEALKAM [CLP 3415]
- Peptides eliciting strong IFN-γ ELISPOT activity [1]: YLTEALKAM

Sequence: NMLAFSFPA [CLP 2426]
- Strong CTL Killing (listed as highly immunoreactive peptide) [4]: NMLAFSFPA

Sequence: GLHRNNAQV [CLP 2520]
- Strong CTL Killing (listed as highly immunoreactive peptide) [4]: GLHRNNAQV

Sequence: SQYSGQLKV [CLP 3015]
- CTL activity in T cells from both donors (peptide-loaded T2 cells): induce
- IFN-γ secretion in T cells from both donors (HLA-A*0201 human T cells): induce

Sequence: SLPHAIEEV [CLP 3343]
- Peptides eliciting strong IFN-γ ELISPOT activity [1]: SLPHAIEEV

Sequence: MVRKKNPPLRNVASEGEGQILE [CLP2589]
- Titer (Bleed 2) (BFA4; [5]): 800000
- Titer (Final Bleed) (BFA4; [5]): 2560000, 2560000
- Titer (Bleed 2) (BFA4; [6]): 1600000
- Titer (Final Bleed) (BFA4; [6]): 2560000, 2560000

Sequence: NVTLLTSLV [CLP 3380]
- Peptides eliciting strong IFN-γ ELISPOT activity [1]: NVTLLTSLV

Sequence: NGEQIIRRRTRKRLNPEALQAE [CLP2593]
- Titer (Bleed 2) (BFA4; [5]): 3200000
- Titer (Final Bleed) (BFA4; [5]): 2560000
- Titer (Bleed 2) (BFA4; [6]): 51200
- Titer (Final Bleed) (BFA4; [6]): 160000

Sequence: ILIDSGADI [CLP 3005]
- CTL activity in T cells from both donors (peptide-loaded T2 cells): induce
- IFN-γ secretion in T cells from both donors (HLA-A*0201 human T cells): induce
